Laboratory results taken from ChEMBL document CHEMBL3228009, “Hypobetalipoproteinemic agents. 2. Compounds related to 4-(1-adamantyloxy)aniline” (J Med Chem, 1979).

What was measured:
[1] = test system: Rattus norvegicus; experiment: Toxicity in diet-induced hypercholesteremic rat model assessed as increase in body weight at 50 mg/kg, po relative to control; type: organism-based; parameters: dose 50 mg/kg, route oral; details: in vivo
[2] = test system: Rattus norvegicus; experiment: Toxicity in diet-induced hypercholesteremic rat model assessed as increase in food intake at 50 mg/kg, po relative to control; type: organism-based; parameters: dose 50 mg/kg, route oral; details: in vivo
[3] = test system: Rattus norvegicus; experiment: Hypobetalipoproteinemic activity in diet-induced hypercholesteremic rat model assessed as decrease in total serum cholesterol at 50 mg/kg, po relative to control; type: functional
[4] = species: Rattus norvegicus; experiment: Selectivity ratio of T/C for heparin precipitating lipoproteins to T/C for total serum cholesterol in diet-induced hypercholesteremic rat model; type: functional
[5] = test system: Rattus norvegicus; experiment: Hypobetalipoproteinemic activity in diet-induced hypercholesteremic rat model assessed as decrease in heparin precipitating lipoproteins at 50 mg/kg, po relative to control; type: functional

| SMILES | Activity [1] | Activity [2] | T/C [3] | Selectivity ratio [4] | T/C [5] |
| --- | --- | --- | --- | --- | --- |
| OC12CC3CC(CC(C3)C1)C2 | > 63% | > 73% | 0.94 | 1.04 | 0.98 |
| Nc1ccc(OC23CCC(CC2)CC3)cc1 | > 63% | > 73% | 0.8 | 0.9 | 0.72 |
| Nc1ccc(OC23CC4CC(CC(C4)C2)C3)cc1 | > 63% | > 73% | 0.54 | 0.65 | 0.35 |
| O=CNc1ccc(OC23CC4CC(CC(C4)C2)C3)cc1 | > 63% | > 73% | 0.71 | 1.09 | 0.78 |
| CCOC(=O)Nc1ccc(OC23CC4CC(CC(C4)C2)C3)cc1 | > 63% | > 73% | 0.57 | 0.74 | 0.42 |
| CC(=O)Nc1ccc(OC23CC4CC(CC(C4)C2)C3)cc1 | > 63% | > 73% | 0.66 | 0.76 | 0.5 |
| CS(=O)(=O)Nc1ccc(OC23CC4CC(CC(C4)C2)C3)cc1 | > 63% | > 73% | 1.51 | 0.85 | 1.3 |
| CNC(=O)Nc1ccc(OC23CC4CC(CC(C4)C2)C3)cc1 | > 63% | > 73% | 1.06 | 0.91 | 0.96 |
| O=C(Nc1ccccc1)Nc1ccc(OC23CC4CC(CC(C4)C2)C3)cc1 | > 63% | > 73% | 1.18 | 1.05 | 1.23 |
| S=C(Nc1ccc(OC23CC4CC(CC(C4)C2)C3)cc1)NC12CC3CC(CC(C3)C1)C2 | > 63% | > 73% | 0.88 | 1.03 | 0.91 |
| CNc1ccc(OC23CC4CC(CC(C4)C2)C3)cc1.Cl | > 63% | > 73% | 0.52 | 0.63 | 0.32 |
| CCNc1ccc(OC23CC4CC(CC(C4)C2)C3)cc1.Cl | > 63% | > 73% | 0.49 | 0.72 | 0.36 |
| c1cc(N2CCCC2)ccc1OC12CC3CC(CC(C3)C1)C2 | > 63% | > 73% | 0.65 | 0.8 | 0.52 |
| c1cc(N2CCCCC2)ccc1OC12CC3CC(CC(C3)C1)C2 | > 63% | > 73% | 0.44 | 0.58 | 0.25 |
| c1cc(N2CCOCC2)ccc1OC12CC3CC(CC(C3)C1)C2 | > 63% | > 73% | 0.92 | 0.94 | 0.87 |
| C#CCN(C)c1ccc(OC23CC4CC(CC(C4)C2)C3)cc1.Cl | > 63% | > 73% | 0.57 | 1.05 | 0.6 |
| CN(CCO)c1ccc(OC23CC4CC(CC(C4)C2)C3)cc1 | > 63% | > 73% | 0.63 | 0.88 | 0.55 |
| CN(CCN1CCCC1)c1ccc(OC23CC4CC(CC(C4)C2)C3)cc1.Cl | > 63% | > 73% | 1.26 | 0.97 | 1.22 |
| CN(C)CCCN(C)c1ccc(OC23CC4CC(CC(C4)C2)C3)cc1.Cl | > 63% | > 73% | 0.98 | 1.01 | 0.99 |
| CN(C=O)c1ccc(OC23CC4CC(CC(C4)C2)C3)cc1 | > 63% | > 73% | 0.51 | 0.72 | 0.36 |
| CN(C)c1ccc(OC23CC4CC(CC(C4)C2)C3)cc1.Cl | > 63% | > 73% | 0.46 | 0.73 | 0.34 |
| CN(CCc1ccccc1)c1ccc(OC23CC4CC(CC(C4)C2)C3)cc1.Cl | > 63% | > 73% | 1.09 | 0.98 | 1.07 |
| CN(CCOc1ccccc1)c1ccc(OC23CC4CC(CC(C4)C2)C3)cc1 | > 63% | > 73% | 1.03 | 1.03 | 1.06 |
| CCCCCCCCN(C)c1ccc(OC23CC4CC(CC(C4)C2)C3)cc1.Cl | > 63% | > 73% | 1.15 | 0.91 | 1.04 |

| SMILES | Activity [1] | Activity [2] | T/C [3] | Selectivity ratio [4] | T/C [5] |
| --- | --- | --- | --- | --- | --- |
| Cc1cc(N)ccc1OC12CC3CC(CC(C3)C1)C2.Cl | < 63% | > 73% | 0.52 | 0.6 | 0.31 |
| Nc1ccc(OC23CC4CC(CC(C4)C2)C3)c(F)c1 | > 63% | > 73% | 0.57 | 0.92 | 0.52 |
| CC(=O)Nc1ccc(OC23CC4CC(CC(C4)C2)C3)c(F)c1 | > 63% | > 73% | 1.15 | 0.93 | 1.07 |
| Fc1cc(N2CCCC2)ccc1OC12CC3CC(CC(C3)C1)C2 | > 63% | > 73% | 0.8 | 1.02 | 0.82 |
| Nc1ccc(OC23CC4CC(CC(C4)C2)C3)cc1F | > 63% | > 73% | 0.35 | 0.68 | 0.24 |
| CC(=O)Nc1ccc(OC23CC4CC(CC(C4)C2)C3)cc1F | > 63% | > 73% | 0.62 | 0.55 | 0.35 |
| Fc1cc(OC23CC4CC(CC(C4)C2)C3)ccc1N1CCCC1 | > 63% | > 73% | 0.58 | 0.51 | 0.3 |
| Cl.Nc1ccc(OC23CC4CC(CC(C4)C2)C3)c(Cl)c1 | > 63% | > 73% | 0.63 | 0.68 | 0.43 |
| Clc1cc(N2CCCC2)ccc1OC12CC3CC(CC(C3)C1)C2 | > 63% | > 73% | 1.08 | 0.98 | 1.07 |
| Cc1cc(N)cc(C)c1OC12CC3CC(CC(C3)C1)C2.Cl | > 63% | > 73% | 0.86 | 0.93 | 0.8 |
| Cc1cc(N2CCCC2)cc(C)c1OC12CC3CC(CC(C3)C1)C2 | > 63% | > 73% | 0.81 | 0.96 | 0.78 |
| CSCc1cc(OC23CC4CC(CC(C4)C2)C3)ccc1N | > 63% | > 73% | 0.49 | 0.76 | 0.38 |
| Cc1cc(OC23CC4CC(CC(C4)C2)C3)ccc1N | < 63% | < 73% | 0.64 | 0.38 | 0.25 |
| CSCc1cc(OC23CC4CC(CC(C4)C2)C3)cc(C)c1N | > 63% | > 73% | 0.88 | 0.96 | 0.85 |
| Cc1cc(OC23CC4CC(CC(C4)C2)C3)cc(C)c1N | > 63% | > 73% | 0.77 | 0.93 | 0.72 |
| Cc1cc(OC23CC4CC(CC(C4)C2)C3)cc(C)c1N1CCCC1 | > 63% | > 73% | 1.18 | 1.08 | 1.28 |
| Cl.Nc1ccc(C23CC4CC(CC(C4)C2)C3)cc1 | > 63% | > 73% | 1.41 | 0.99 | 1.4 |
| c1cc(C23CC4CC(CC(C4)C2)C3)ccc1N1CCCC1 | > 63% | > 73% | 1.17 | 0.77 | 0.9 |
| Cl.Nc1ccc(CC23CC4CC(CC(C4)C2)C3)cc1 | > 63% | > 73% | 0.45 | 0.5 | 0.23 |
| CNc1ccc(CC23CC4CC(CC(C4)C2)C3)cc1.Cl | > 63% | > 73% | 0.55 | 0.82 | 0.45 |
| c1cc(N2CCCC2)ccc1CC12CC3CC(CC(C3)C1)C2 | > 63% | > 73% | 0.82 | 1.06 | 0.87 |
| Cl.Nc1ccccc1CC12CC3CC(CC(C3)C1)C2 | > 63% | > 73% | 0.86 | 1.03 | 0.89 |
| c1ccc(N2CCCC2)c(CC23CC4CC(CC(C4)C2)C3)c1 | > 63% | > 73% | 1.39 | 1.01 | 1.4 |
| CN(c1ccc(N)cc1)C12CC3CC(CC(C3)C1)C2.Cl | < 63% | < 73% | 0.84 | 0.98 | 0.82 |
